In patent US10189854B2, “Substituted pyrimidine compounds” (Grünenthal GmbH, priority 2014, dated 2019):

Biological target: human PDE4B1 (Homo sapiens (Human), UniProt Q07343)
Assay: cAMP HTRF assay to determine the activity of hPDE4B1
Type: biochemical
Settings: IC50 inhibition of PDE4B; human recombinant PDE4B1, cAMP HTRF assay
How it was run: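 Recombinant human PDE4B1 expressed in Sf9 cells (4.8 U) was incubated with 40 nM cAMP for 30 min at room temperature in Tris buffer, pH 7.8, with MgCl2, DTT and Tween 20. HTRF detection of remaining cAMP followed, with 1 mM IBMX stop, read 60 min later as the 665/620 nm ratio. Results are % inhibition versus control.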

human PDE4B1, sequence (Q07343 whole entry): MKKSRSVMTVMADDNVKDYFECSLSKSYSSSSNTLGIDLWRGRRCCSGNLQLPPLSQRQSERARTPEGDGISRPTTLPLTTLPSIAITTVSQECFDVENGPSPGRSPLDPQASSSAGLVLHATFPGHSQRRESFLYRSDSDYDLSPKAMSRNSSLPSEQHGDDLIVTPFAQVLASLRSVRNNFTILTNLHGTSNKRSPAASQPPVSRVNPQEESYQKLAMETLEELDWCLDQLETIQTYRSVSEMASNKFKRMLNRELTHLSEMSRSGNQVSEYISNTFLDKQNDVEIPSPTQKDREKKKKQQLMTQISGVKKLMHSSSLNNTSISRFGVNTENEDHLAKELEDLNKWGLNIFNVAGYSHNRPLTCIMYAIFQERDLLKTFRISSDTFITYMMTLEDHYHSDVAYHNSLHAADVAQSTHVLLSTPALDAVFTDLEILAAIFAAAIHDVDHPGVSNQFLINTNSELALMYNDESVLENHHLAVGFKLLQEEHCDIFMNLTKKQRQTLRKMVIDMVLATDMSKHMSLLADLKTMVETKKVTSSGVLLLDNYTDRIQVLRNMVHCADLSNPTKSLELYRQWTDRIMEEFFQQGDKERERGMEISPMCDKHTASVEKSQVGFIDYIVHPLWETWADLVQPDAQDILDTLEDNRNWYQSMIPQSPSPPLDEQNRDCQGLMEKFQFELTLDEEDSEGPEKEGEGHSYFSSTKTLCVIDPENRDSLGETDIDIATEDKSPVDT

Row | Molecule | IC50 [µM]
1 | O=C(c1ccc2c(c1)N(c1ncc(-c3ccsc3Cl)cn1)CC21CC1)N1CCOCC1 [Compound 132, [1-[5-(2-Chloro-thiophen-3-yl)-pyrimidin-2-yl]-spiro[1,2-dihydro-indole-3,1′-cyclopropane]-6-yl]-morpholin-4-yl-methanone] | < 0.1
2 | O=C(c1ccc2c(c1)N(c1ncc(-c3cc(OC(F)(F)F)ccc3F)cn1)CC21CC1)N1CCNCC1 [Compound 72, [1-[5-[2-Fluoro-5-(trifluoromethyloxy)-phenyl]-pyrimidin-2-yl]-spiro[1,2-dihydro-indole-3,1′-cyclopropane]-6-yl]-piperazin-1-yl-methanone] | < 0.1
3 | CC1COCC(C)N1C(=O)c1ccc2c(c1)N(c1ncc(-c3ccccc3F)cn1)CC21CC1 (centres unmarked) [Compound 101, (3,5-Dimethyl-morpholin-4-yl)-[1-[5-(2-fluorophenyl)-pyrimidin-2-yl]-spiro[1,2-dihydro-indole-3,1′-cyclopropane]-6-yl]-methanone] | 0.1 to 1
4 | O=C(c1ccc2c(c1)N(c1ncc(-c3cn[nH]c3C(F)(F)F)cn1)CC21CC1)N1CCOCC1 [Compound 140, Morpholin-4-yl-[1-[5-[5-(trifluoromethyl)-1H-pyrazol-4-yl]-pyrimidin-2-yl]-spiro[1,2-dihydro-indole-3,1′-cyclopropane]-6-yl]-methanone] | < 0.1
5 | O=C(c1ccc2c(c1)N(c1ncc(-c3ccccc3Cl)cn1)CC21CC1)N1CCOCC1 [Compound 6, [1-[5-(2-Chlorophenyl)-pyrimidin-2-yl]-spiro[1,2-dihydro-indole-3,1′-cyclopropane]-6-yl]-morpholin-4-yl-methanone] | 0.1 to 1
6 | CN(C)c1ccnc(-c2cnc(N3CC4(CC4)c4ccc(C(=O)N5CCOCC5)cc43)nc2)c1 [Compound 208, [1-[5-(4-Dimethylamino-pyridin-2-yl)-pyrimidin-2-yl]-spiro[1,2-dihydro-indole-3,1′-cyclopropane]-6-yl]-morpholin-4-yl-methanone] | < 0.1
7 | [1-[5-(6-Methyl-pyridazin-3-yl)-pyrimidin-2-yl]-spiro[1,2-dihydro-indole-3,1′-cyclopropane]-6-yl]-morpholin-4-yl-methanone [Compound 196] | < 0.1
8 | COc1ccc(F)c(-c2cnc(N3CC4(CC4)c4ccc(C(=O)N5CCNCC5)cc43)nc2)c1 [Compound 73, [1-[5-(2-Fluoro-5-methoxy-phenyl)-pyrimidin-2-yl]-spiro[1,2-dihydro-indole-3,1′-cyclopropane]-6-yl]-piperazin-1-yl-methanone] | < 0.1
9 | CC1COCCN1C(=O)c1ccc2c(c1)N(c1ncc(-c3ccccc3F)cn1)CC21CC1 (centres unmarked) [Compound 103, [1-[5-(2-Fluorophenyl)-pyrimidin-2-yl]-spiro[1,2-dihydro-indole-3,1′-cyclopropane]-6-yl]-(3-methyl-morpholin-4-yl)-methanone] | < 0.1
10 | O=C(c1ccc2c(c1)N(c1ncc(-c3ccnc(F)c3)cn1)CC21CC1)N1CCOCC1 [Compound 160, [1-[5-(2-Fluoro-pyridin-4-yl)-pyrimidin-2-yl]-spiro[1,2-dihydro-indole-3,1′-cyclopropane]-6-yl]-morpholin-4-yl-methanone] | < 0.1
11 | O=C(c1ccc2c(c1)N(c1ncc(-c3ccccc3F)cn1)CC21CC1)N1CCCCC12COC2 [Compound 80, [1-[5-(2-Fluorophenyl)-pyrimidin-2-yl]-spiro[1,2-dihydro-indole-3,1′-cyclopropane]-6-yl]-(2-oxa-5-azaspiro[3.5]nonan-5-yl)-methanone] | 0.1 to 1
12 | [1-[5-(4-Fluoro-pyridin-2-yl)-pyrimidin-2-yl]-spiro[1,2-dihydro-indole-3,1′-cyclopropane]-6-yl]-morpholin-4-yl-methanone [Compound 187] | < 0.1
13 | N[C@@H]1CCN(C(=O)c2ccc3c(c2)N(c2ncc(-c4ccccc4F)cn2)CC32CC2)C1 [Compound 40, [(3R)-3-Amino-pyrrolidin-1-yl]-[1-[5-(2-fluorophenyl)-pyrimidin-2-yl]-spiro[1,2-dihydro-indole-3,1′-cyclopropane]-6-yl]-methanone] | < 0.1
14 | NC(=O)c1cccc(F)c1-c1cnc(N2CC3(CC3)c3ccc(C(=O)N4CCOCC4)cc32)nc1 [Compound 32, 3-Fluoro-2-[2-[6-(morpholine-4-carbonyl)-spiro[1,2-dihydro-indole-3,1′-cyclopropane]-1-yl]-pyrimidin-5-yl]-benzamide] | 0.1 to 1
15 | O=C(c1ccc2c(c1)N(c1ncc(-c3ccccc3F)cn1)CC21CC1)N1CCNCC1 [Compound 5, [1-[5-(2-Fluorophenyl)-pyrimidin-2-yl]-spiro[1,2-dihydro-indole-3,1′-cyclopropane]-6-yl]-piperazin-1-yl-methanone] | < 0.1
16 | CNC(=O)c1ccc2c(c1)N(c1ncc(-c3ccccc3F)cn1)CC21CC1 [Compound 61, 1-[5-(2-Fluorophenyl)-pyrimidin-2-yl]-N-methyl-spiro[1,2-dihydro-indole-3,1′-cyclopropane]-6-carboxylic acid amide] | 0.1 to 1

Row | Molecule | IC50 [µM]
17 | CCN(C)C(=O)c1ccc2c(c1)N(c1ncc(-c3ccccc3F)cn1)CC21CC1 [Compound 90, N-Ethyl-1-[5-(2-fluorophenyl)-pyrimidin-2-yl]-N-methyl-spiro[1,2-dihydro-indole-3,1′-cyclopropane]-6-carboxylic acid amide] | 0.1 to 1
18 | Cc1noc(C)c1-c1cnc(N2CC3(CC3)c3ccc(C(=O)N4CCOCC4)cc32)nc1 [Compound 135, [1-[5-(3,5-Dimethyl-isoxazol-4-yl)-pyrimidin-2-yl]-spiro[1,2-di-hydro-indole-3,1′-cyclopropane]-6-yl]-morpholin-4-yl-methanone] | 0.1 to 1
19 | NC(=O)c1cccc(-c2cnc(N3CC4(CC4)c4ccc(C(=O)N5CCOCC5)cc43)nc2)c1 [Compound 54, 3-[2-[6-(Morpholine-4-carbonyl)-spiro[1,2-dihydro-indole-3,1′-cyclopropane]-1-yl]-pyrimidin-5-yl]-benzamide] | < 0.1
20 | O=C1CN(C(=O)c2ccc3c(c2)N(c2ncc(-c4cccnc4F)cn2)CC32CC2)CCN1 [Compound 176, 4-[1-[5-(2-Fluoro-pyridin-3-yl)-pyrimidin-2-yl]-spiro[1,2-dihydro-indole-3,1′-cyclopropane]-6-carbonyl]-piperazin-2-one] | < 0.1
21 | O=C(c1ccc2c(c1)N(c1ncc(-c3ccccc3F)cn1)CC21CC1)N1CCN(C2CC2)CC1 [Compound 66, (4-Cyclopropyl-piperazin-1-yl)-[1-[5-(2-fluorophenyl)-pyrimidin-2-yl]-spiro[1,2-dihydro-indole-3,1′-cyclopropane]-6-yl]-methanone] | 1 to 10
22 | Morpholin-4-yl-[1-(5-pyridazin-3-yl-pyrimidin-2-yl)-spiro[1,2-di-hydro-indole-3,1′-cyclopropane]-6-yl]-methanone [Compound 191] | < 0.1
23 | Morpholin-4-yl-[1-[5-[4-(trifluoromethyl)-pyridin-2-yl]-pyrimidin-2-yl]-spiro[1,2-dihydro-indole-3,1′-cyclopropane]-6-yl]-methanone [Compound 195] | < 0.1
24 | Cn1nc(C(F)(F)F)cc1-c1cnc(N2CC3(CC3)c3ccc(C(=O)N4CCOCC4)cc32)nc1 [Compound 134, [1-[5-[2-Methyl-5-(trifluoromethyl)-2H-pyrazol-3-yl]-pyrimidin-2-yl]-spiro[1,2-dihydro-indole-3,1′-cyclopropane]-6-yl]-morpholin-4-yl-methanone] | 0.1 to 1
25 | Cc1cc(-c2cnc(N3CC4(CC4)c4ccc(C(=O)N5CCOCC5)cc43)nc2)ccn1 [Compound 159, [1-[5-(2-Methyl-pyridin-4-yl)-pyrimidin-2-yl]-spiro[1,2-dihydro-indole-3,1′-cyclopropane]-6-yl]-morpholin-4-yl-methanone] | < 0.1
26 | O=C(c1ccc2c(c1)N(c1ncc(-c3ccccc3F)cn1)CC21CC1)N1CCCCC1 [Compound 84, [1-[5-(2-Fluorophenyl)-pyrimidin-2-yl]-spiro[1,2-dihydro-indole-3,1′-cyclopropane]-6-yl]-piperidin-1-yl-methanone] | < 0.1
27 | Cc1ccc(F)c(-c2cnc(N3CC4(CC4)c4ccc(C(=O)N5CCOCC5)cc43)nc2)c1 [Compound 52, [1-[5-(2-Fluoro-5-methyl-phenyl)-pyrimidin-2-yl]-spiro[1,2-dihydro-indole-3,1′-cyclopropane]-6-yl]-morpholin-4-yl-methanone] | < 0.1
28 | NC(=O)c1ccc(-c2cnc(N3CC4(CC4)c4ccc(C(=O)N5CCOCC5)cc43)nc2)cc1 [Compound 63, 4-[2-[6-(Morpholine-4-carbonyl)-spiro[1,2-dihydro-indole-3,1′-cyclopropane]-1-yl]-pyrimidin-5-yl]-benzamide] | < 0.1
29 | COc1cccc(F)c1-c1cnc(N2CC3(CC3)c3ccc(C(=O)N4CCOCC4)cc32)nc1 [Compound 19, [1-[5-(2-Fluoro-6-methoxy-phenyl)-pyrimidin-2-yl]-spiro[1,2-dihydro-indole-3,1′-cyclopropane]-6-yl]-morpholin-4-yl-methanone] | 0.1 to 1
30 | O=C1CN(C(=O)c2ccc3c(c2)N(c2ncc(-c4ccccn4)cn2)CC32CC2)CCN1 [Compound 180, 4-[1-(5-Pyridin-2-yl-pyrimidin-2-yl)-spiro[1,2-dihydro-indole-3,1′-cyclopropane]-6-carobnyl]-piperazin-2-one] | < 0.1
31 | CC1(C)CN(C(=O)c2ccc3c(c2)N(c2ncc(-c4ccccc4F)cn2)CC32CC2)CCO1 [Compound 105, (2,2-Dimethyl-morpholin-4-yl)-[1-[5-(2-fluorophenyl)-pyrimidin-2-yl]-spiro[1,2-dihydro-indole-3,1′-cyclopropane]-6-yl] methanone] | 0.1 to 1
32 | CN(CC1OCCO1)C(=O)c1ccc2c(c1)N(c1ncc(-c3ccccc3F)cn1)CC21CC1 [Compound 87, N-([1,3]Dioxolan-2-yl-methyl)-1-[5-(2-fluorophenyl)-pyrimidin-2-yl]-N-methyl-spiro[1,2-dihydro-indole-3,1′-cyclopropane]-6-carboxylic acid amide] | 0.1 to 1
